Test results taken from patent US20150030540A1 (Eli Lilly and Company, priority 2008, published 2015).
Like-named read-outs stand apart in the source and are kept apart here.

What was measured:
Aβ fibrils = molecular target: T1, Aβ fibrils (Homo sapiens, UniProt P05067); settings: read-out: Binding Affinity Ki; cited from earlier work
T1 construct: Aβ monomer

fibrils (Aβ1-42) = fibrils (Aβ1-42) (Homo sapiens, UniProt P05067); test: Biacore assay, Aβ42 fibrils; assay type: binding; parameters: key: A “+” sign represents a hit; ++: the increase in “+” signs relates to increasing binding affinity; +++: the increase in “+” signs relates to increasing binding affinity; A “−”sign represents no binding; settings: 10 uM
Description: β-Amyloid (Aβ42) Insoluble Aggregates (Fibrils). Fibrils were prepared according to methods published previously ([…] et al. 2001). Briefly, 0.5 mg of Aβ42 (Biotin-LC-Aβ42:Aβ42=1:1) was dissolved in 1 ml of PBS, pH 7.4, and mixed with a magnetic stir bar for 3 d at 37° C., resulting in a visibly cloudy solution. The fibril pellet was collected by centrifugation. The Biotin-LC-Aβ42 fibrils were immobilized onto SA chip by streptavidin-biotin capture. Screening of Amyloid Binding Compounds with Biacore (Surface Plasmon Resonance Analysis). Aβ42 oligomers/soluble polymers or fibrils were immobilized on Flow Cell 2 (Fc2) or Flow Cell 3 (Fc3) of the Sensor Chip, with Fc1 serving as the control. […] The Flow Cells were then washed with running buffer (1×PBS) for 2 minute, and regenerated with 50 mM of NaOH for 30 seconds. The real time interaction between the screening compound and the amyloid aggregates immobilized on the chip surface was recorded in the sensorgram.

[1] = molecular target: oligomers/polymers (Aβ1-42) (Homo sapiens, UniProt P05067); test: Biacore assay, Aβ42 oligomers/soluble polymers; assay type: binding; parameters: key: A “+” sign represents a hit; ++: the increase in “+” signs relates to increasing binding affinity; +++: the increase in “+” signs relates to increasing binding affinity; A “−”sign represents no binding; settings: 10 uM
Description: β-Amyloid (Aβ42) Soluble Aggregates (Oligomers/Soluble Polymers). Biotin-LC-Aβ42 was mixed with Aβ42 at a ratio of 3:2. After dissolving in 1% NH4OH and dH2O, the mixture (40 uM concentration) was incubated in 1×PBS (pH 7.4) buffer at RT for 6-hours to form oligomers/soluble polymers. The free monomer of Aβ42 in the sample was removed using a Microcon centrifugal filter tube with a 10 KDa of MW cutoff. The Biotin-LC-Aβ42 oligomers/polymers were immobilized onto SA chip by streptavidin-biotin capture. Screening of Amyloid Binding Compounds with Biacore (Surface Plasmon Resonance Analysis). Aβ42 oligomers/soluble polymers or fibrils were immobilized on Flow Cell 2 (Fc2) or Flow Cell 3 (Fc3) of the Sensor Chip, with Fc1 serving as the control. […] The Flow Cells were then washed with running buffer (1×PBS) for 2 minute, and regenerated with 50 mM of NaOH for 30 seconds. The real time interaction between the screening compound and the amyloid aggregates immobilized on the chip surface was recorded in the sensorgram.

Aβ monomer = molecular target: T2, Aβ monomer (Homo sapiens, UniProt P05067); settings: read-out: Binding Affinity IC50; cited from earlier work
T2 construct: Aβ monomer

[2] = microPET imaging of AD-CB-001 in rat; assay type: in vivo, Sprague-Dawley rat; settings: tail vein, 30 min dynamic microPET scan
Description: A white Sprague-Dawley rat was injected via tail vein with ˜850 uCi AD-CB-001, formulated in 10% EtOH:water. A dynamic scan was conducted for 30 min on a R4 microPET scanner. The data was reconstructed using 1 min framing.

[3] = Grey to white matter binding, autoradiography of AD patient brain slices; parameters: species or system human; settings: for Grey/white matter binding ratio using mild wash conditions: mild wash: 30%/40%/20% EtOH:water
Description: A study was conducted to examine the grey to white matter binding ratios for 4 different tracers: CB-001, CB-003, FDDNP and F-PiB (FIG. 7 and FIG. 8 of U.S. Ser. No. 12/372,717). […] After the human brain slices from AD patients were incubated with a given tracer for 30 min, the slices were washed with various EtOH:water solutions in an attempt to optimize the grey to white matter ratios (FIG. 9 of U.S. Ser. No. 12/372,717). The results were surprising and unexpected in view of previous work performed by other researchers. CB-001 has a slightly higher c Log P than FDDNP (3.8 vs 3.4) and would be expected to have poorer washout than FDDNP based on these values. […] More specifically, the white matter binding of FDDNP is several shades darker than CB-001's white matter binding, indicating low non-specific binding of CB-001.

amyloid binding pockets = test: Blocking of [18F]-CB001 autoradiography staining
MAO-B = molecular target: T3, MAO-B (Homo sapiens, UniProt P27338); test: MAO inhibition, MAO-B; assay type: biochemical
T3 sequence (P27338 1-520): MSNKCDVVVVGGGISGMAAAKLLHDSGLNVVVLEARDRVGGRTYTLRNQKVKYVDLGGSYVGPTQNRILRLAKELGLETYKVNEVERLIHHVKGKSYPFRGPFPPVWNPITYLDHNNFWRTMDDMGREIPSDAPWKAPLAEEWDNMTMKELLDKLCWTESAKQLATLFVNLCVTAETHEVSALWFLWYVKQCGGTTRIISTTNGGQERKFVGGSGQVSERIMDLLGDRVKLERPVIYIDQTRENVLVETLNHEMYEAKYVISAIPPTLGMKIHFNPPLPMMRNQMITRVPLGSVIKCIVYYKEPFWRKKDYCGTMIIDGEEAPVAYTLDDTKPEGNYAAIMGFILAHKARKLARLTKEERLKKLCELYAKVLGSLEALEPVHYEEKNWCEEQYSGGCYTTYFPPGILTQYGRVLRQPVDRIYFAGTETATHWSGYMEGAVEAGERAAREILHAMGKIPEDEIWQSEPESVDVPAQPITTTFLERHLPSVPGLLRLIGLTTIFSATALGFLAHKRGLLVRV

[4] = GM Intensity (comp. with W372); assay type: binding; settings: compared with W372
tau/Ab = test: selectivity (tau/Ab); assay type: binding
From the text: (§1) Furthermore, the selectivity can be evaluated in brains containing only Aβ plaques/no tau aggregates, Aβ plaques/and tau aggregates, and control brains. Unfortunately, there are no AD brains with only tau and no Aβ present. By testing radiolabeled tracers in these brain sections, one can more quantitative evaluate the relative binding strength (signal strength) and selectivity of various test compounds as they all contain the same radioactive tracer. For examples, if a test tracer binds only to tau, and not amyloid, it should show no signal in the Aβ plaques only brain sections. If a compound binds only to amyloid, it should show uptake in both types of brains. The difficulty of identifying and further quantifying selective compounds lies in the relative abundance of amyloid vs. tau, which is difficult to measure.

[5] = Brain uptake in rats and mice; assay type: in vivo
MAO-A = molecular target: T4, MAO-A (Homo sapiens, UniProt P21397); test: MAO inhibition, MAO-A; assay type: biochemical
T4 sequence (P21397 1-527): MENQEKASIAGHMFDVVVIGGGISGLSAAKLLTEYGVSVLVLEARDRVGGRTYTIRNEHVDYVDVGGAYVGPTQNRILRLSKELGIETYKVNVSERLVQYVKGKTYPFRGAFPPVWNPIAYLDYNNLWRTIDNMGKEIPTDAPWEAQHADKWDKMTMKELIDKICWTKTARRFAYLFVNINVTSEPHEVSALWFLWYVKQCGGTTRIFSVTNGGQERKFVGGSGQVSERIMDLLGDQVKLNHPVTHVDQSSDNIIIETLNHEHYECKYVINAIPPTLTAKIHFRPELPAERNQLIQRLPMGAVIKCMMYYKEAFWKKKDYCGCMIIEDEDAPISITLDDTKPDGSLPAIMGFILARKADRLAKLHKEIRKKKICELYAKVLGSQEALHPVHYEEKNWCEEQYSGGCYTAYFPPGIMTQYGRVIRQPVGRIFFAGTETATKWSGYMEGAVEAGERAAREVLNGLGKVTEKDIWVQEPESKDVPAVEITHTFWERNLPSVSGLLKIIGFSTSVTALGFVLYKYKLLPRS

[6] = background in normal brain; assay type: binding
From the text: as §1

CNS selectivity panel = CNS selectivity panel (hits); assay type: binding
AchE = AchE (Homo sapiens, UniProt P22303); test: AchE activity (IC50); assay type: biochemical
tau = molecular target: T5, tau (Homo sapiens, UniProt P10636); test: KD (tau) binding; settings: read-out: KD (tau)
T5 construct: Native forms of tau (various isoforms, hyperphosphorylated) and amyloid aggregates are present in brain sections and therefore preferred for compound testing
From the text: (§2) When injected intravenously into mice, the Carbazole based compounds; in particular T807, T805 and T794 have shown excellent brain uptake. These compounds also display high binding affinity to tau fibrils. […] In neuropathological staining, compounds of the present invention stained amyloid plaques and/or tau aggregates.
as §1

[7] = Brain uptake after intravenous injection into mice; assay type: in vivo; settings: injected intravenously into mice
From the text: as §2

tau/amyloid = test: Tx/tau/amyloid correlation; assay type: binding
human hepatocytes = test: Metabolism in human hepatocytes; assay type: in vitro ADME
[8] = molecular target: Amyloid (AD Patient's Brain Slice) (Homo sapiens, UniProt P05067); test: IC50 determination with [18F]-PiB by ex vivo competition assay using autoradiography staining; assay type: binding
From the text: Ex Vivo Competition Assay Using Amyloid (AD Patient's Brain Slice) Autoradiography Staining

T2 sequence (P05067 672-713 limits assumed): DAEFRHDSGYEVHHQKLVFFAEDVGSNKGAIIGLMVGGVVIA
Chain of Amyloid (AD Patient's Brain Slice) (P05067 672-711 limits assumed): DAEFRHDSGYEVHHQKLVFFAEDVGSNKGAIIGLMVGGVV
Chain of oligomers/polymers (Aβ1-42) (P05067 672-713 limits assumed): as the sequence (P05067 672-713 limits assumed) above
Chain of fibrils (Aβ1-42) (P05067 672-713 limits assumed): as above
T5 sequence (P10636 623-758 limits assumed): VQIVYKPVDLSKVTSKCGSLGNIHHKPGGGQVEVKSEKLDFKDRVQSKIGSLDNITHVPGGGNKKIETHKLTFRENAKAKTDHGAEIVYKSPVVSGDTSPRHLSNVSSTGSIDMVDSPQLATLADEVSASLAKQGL
Chain of AchE (P22303 32-614): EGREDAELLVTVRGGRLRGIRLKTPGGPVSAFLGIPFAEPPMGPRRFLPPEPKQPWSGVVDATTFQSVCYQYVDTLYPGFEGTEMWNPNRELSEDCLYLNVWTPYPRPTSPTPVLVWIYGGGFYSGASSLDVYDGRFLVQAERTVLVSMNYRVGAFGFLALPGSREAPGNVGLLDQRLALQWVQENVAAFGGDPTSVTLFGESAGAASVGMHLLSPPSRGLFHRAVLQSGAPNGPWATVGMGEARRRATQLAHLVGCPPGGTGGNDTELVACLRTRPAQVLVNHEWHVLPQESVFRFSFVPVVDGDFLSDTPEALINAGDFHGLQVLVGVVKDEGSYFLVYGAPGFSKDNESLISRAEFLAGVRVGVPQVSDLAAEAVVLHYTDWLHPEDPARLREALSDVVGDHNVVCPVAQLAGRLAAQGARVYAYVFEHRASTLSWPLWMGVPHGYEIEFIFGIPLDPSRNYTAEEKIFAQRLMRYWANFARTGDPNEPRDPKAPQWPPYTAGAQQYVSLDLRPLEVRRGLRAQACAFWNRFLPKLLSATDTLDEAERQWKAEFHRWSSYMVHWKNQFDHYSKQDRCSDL
T1 sequence (P05067 672-713 limits assumed): as the sequence (P05067 672-713 limits assumed) above

Compound: [11CH3]Nc1ccc(-c2cc3ccc(O)cc3o2)cc1
- Ki (Aβ fibrils): 2.8 nM

Compound: Oc1ccc2c(c1)[nH]c1ccccc12 [2-Hydroxycarbazole]
- Binding to fibrils (Aβ1-42) (fibrils (Aβ1-42)): +
- Binding to oligomers/polymers (Aβ1-42) [1]: +++

Compound: O=S(=O)(O)c1cccc2cccc(Nc3ccccc3)c12 [ANS]
- IC50 (Aβ monomer): > 100000 nM

Compound: FCCOc1ccc2c(c1)[nH]c1ccccc12 [CB-001, 2-(2-fluoroethoxy)-9H-carbazole]
- brain entry and washout [2]: entered the rat brain and quickly washed out
- non-specific binding propensity ([3]; compared to FDDNP): lower
- Grey/white matter binding ratio using harsh FDDNP wash conditions ([3]; harsh FDDNP wash: 70%/90%/70% EtOH:water): Excellent
- Grey/white matter binding ratio using mild wash conditions [3]: Poor
- grey to white matter ratio ([3]; original wash, text b480): much better

Compound: FCCOCCOCCOc1ccc2c(c1)[nH]c1ccccc12 [CB-003, 2-(2-(2-(2-fluoroethoxy)ethoxy)ethoxy)-9H-carbazole]
- differentiation of healthy and AD brain ([3]; mild wash protocol): clearly differentiate between a healthy brain and an AD brain
- Grey/white matter binding ratio using mild wash conditions [3]: Excellent
- grey to white matter binding ratios ([3]; milder washing conditions, text b481): excellent

Compound: Nc1c(/N=N/c2ccc(-c3ccc(/N=N/c4cc(S(=O)(=O)O)c5ccccc5c4N)cc3)cc2)cc(S(=O)(=O)O)c2ccccc12 [Congo Red]
- IC50 (Aβ monomer): 2000 to 10000 nM

Compound: COc1cc(/C=C/C(=O)/C=C(O)/C=C/c2ccc(O)c(OC)c2)ccc1O [Curcumin]
- IC50 (Aβ monomer): 10000 to 20000 nM

Compound: CC(=C(C#N)C#N)c1ccc2cc(N(C)CCF)ccc2c1 [FDDNP]
- blocking of [18F]-CB001 staining (amyloid binding pockets): much less capable of blocking

Compound: CNc1ccc(-c2nc3ccc(O)cc3s2)cc1 [PiB]
- blocking of [18F]-CB001 staining (amyloid binding pockets): blocks [18F]-CB001 staining with increasing concentrations

Compound: Cc1cnc2c(c1)[nH]c1cc(OCCF)ccc12 [T703, 7-(2-fluoroethoxy)-3-methyl-5H-pyrido[3,2-b]indole]
- inhibition at 1 µM (MAO-B): 0%
- GM Intensity (comp. with W372) [4]: 6%
- selectivity (tau/Ab) (tau/Ab): 16x
- Brain uptake [5]: Yes
- inhibition at 1 µM (MAO-A): 16%
- background (normal brain 32566) PSL/mm2 [6]: 15 PSL/mm2
- CNS selectivity panel (targets named) (CNS selectivity panel): NET, σl

Compound: FCCc1ccc2c(c1)[nH]c1ccncc12 [T805, 7-(2-Fluoroethyl)-5H-pyrido[4,3-b]indole]
- inhibition at 1 µM (MAO-B): 0%
- AchE activity, effect at 10 uM (AchE; at 10 uM): <50% at 10 uM
- GM Intensity (comp. with W372) [4]: 8%
- Kd (tau): 32 nM
- selectivity (tau/Ab) (tau/Ab): 14x
- Brain uptake [5]: yes (2 rats, 2 mice)
- Brain uptake [7]: excellent
- inhibition at 1 µM (MAO-A): 0%
- background (normal brain 32566) PSL/mm2 [6]: 49 PSL/mm2

Compound: Fc1ccc(-c2ccc3c(c2)[nH]c2ccncc23)cn1 [T807, 7-(6-Fluoropyridine-3-yl)-5H-pyrido[4,3-b]indole]
- Tx/tau/amyloid correlation (tau/amyloid): yes
- inhibition at 1 µM (MAO-B): 0%
- IC50 (AchE): 6000 nM
- GM Intensity (comp. with W372) [4]: 28%
- Kd (tau): 15 nM
- selectivity (tau/Ab) (tau/Ab): 29x
- Brain uptake [5]: yes (3 rats, 3 mice)
- Brain uptake [7]: excellent
- inhibition at 1 µM (MAO-A): 0%
- background (normal brain 32566) PSL/mm2 [6]: 61 PSL/mm2
- human hepatocytes (metabolic stability) (human hepatocytes): somewhat stable

Compound: F-PiB
- IC50 ([8]; average of determinations, read-out: Average IC50): 45 nM
- IC50 ([8]; determination 9, read-out: IC50 9): 40 nM
- IC50 ([8]; determination 10, read-out: IC50 10): 50 nM
- IC50 ([8]; determination 11, read-out: IC50 11): 55 nM
- IC50 ([8]; determination 12, read-out: IC50 12): 41 nM
- overall signal [3]: very weak

Compound: Harmol
- Binding to fibrils (Aβ1-42) (fibrils (Aβ1-42)): +
- Binding to oligomers/polymers (Aβ1-42) [1]: ++
